Results taken from US11549147B2, “Treatment of atopic dermatitis with tradipitant” (VANDA PHARMACEUTICALS INC., priority 2017, dated 2023).

System: treatment-resistant pruritus associated with atopic dermatitis, high or low baseline IgE
Assay: Exploratory analysis of study NCT02651714 by baseline IgE level (Example 4)
Assay type: in vivo, human
Design: Average Itch NRS / Average Itch NRS, Diff / Sleep Disturbance / Extension / Excoriations, Diff / Erythema / Skin dryness / Skin dryness, Diff / Itch / Itch, Diff / Insomnia / Insomnia, Diff / CGIC / CGIC, Diff / VRS / VRS, Diff / Average Itch VAS / Average Itch VAS, Diff / worst Itch VAS, Diff: scale not given here
Conditions: 85 mg bid; for Average Itch NRS, Diff / Average Itch VAS, Diff / CGIC, Diff / EASI, Diff / Erythema, Diff / Excoriations, Diff / Extension, Diff / Insomnia, Diff / Intensity, Diff / Itch, Diff / Lichenification, Diff / Log EASI, Diff / Objective SCORAD, Diff / Oozing/crusting, Diff / PBI, Diff / PGIC AD, Diff / PGIC ITCH, Diff / SCORAD Total, Diff / Skin dryness, Diff / Sleep Disturbance, Diff / Subjective SCORAD, Diff / VRS, Diff / Worst Itch NRS Day, Diff / Worst Itch NRS Night, Diff / Worst Itch NRS, Diff / edema/Papules, Diff / worst Itch VAS >= 30, Diff / worst Itch VAS, Diff / worst ItchVAS >= 40, Diff / EASI 75, Diff / SCORAD 50, Diff: Diff tradipitant vs placebo; for Average Itch NRS / Average Itch VAS / EASI / Log EASI / Objective SCORAD / SCORAD Total / Sleep Disturbance / Subjective SCORAD / VRS / Worst Itch NRS / Worst Itch NRS Day / Worst Itch NRS Night / worst Itch VAS: week 8, vs baseline; for worst Itch VAS >= 30 / worst ItchVAS >= 40: Fisher; for Erythema / Excoriations / Extension / Intensity / Lichenification / Oozing/crusting / Skin dryness / edema/Papules: objective SCORAD parameter; for Insomnia / Itch: subjective SCORAD parameter
Protocol: In the study described above in Example 3, an exploratory analysis is conducted to analyze Immunoglobulin E (IgE) levels and the effect of treatment with tradipitant on atopic dermatitis and pruritus. For purposes of the analysis, study participants having an IgE level greater than or equal to 100 kU/L are deemed to have a high IgE level, while study participants having an IgE level of less than 100 kU/L are deemed to have a low IgE level. The baseline mean and range SCORAD total for each of the total study population, the high IgE group, and the low IgE group are shown below in Table 5.
The mean and range of SCORAD totals shown in Table 5 illustrate that the study population spans different strata of disease severity, from mild to severe. Table 5 also illustrates the similarity in disease severity between the high IgE and low IgE groups. Table 6 (below) presents the study results of tradipitant in treatment-resistant pruritus associated with atopic dermatitis in individuals having high baseline IgE levels (IgE≥100 kU/L), while Table 7 (below) presents the study results of tradipitant in treatment-resistant pruritus associated with atopic dermatitis in individuals having low baseline IgE levels (IgE<100 kU/L). The data in Tables 6-7 represent a separation by IgE level of the data appearing in Table 4 above.
For purposes of the present analysis, individuals having an IgE level greater than or equal to 100 kU/L are considered to have high IgE levels, while individuals having an IgE level of less than 100 kU/L are considered to have low IgE levels.

[1] = high baseline IgE (≥100 kU/L), week 8
[2] = high baseline IgE (≥100 kU/L), week 8, LOCF
[3] = low baseline IgE (<100 kU/L), week 8
[4] = low baseline IgE (<100 kU/L), week 8, LOCF
[5] = high baseline IgE (≥100 kU/L), ITT, week 8
[6] = high baseline IgE (≥100 kU/L), ITT
[7] = high baseline IgE (≥100 kU/L), ITT, week 8, LOCF
[8] = low baseline IgE (<100 kU/L), ITT, week 8
[9] = low baseline IgE (<100 kU/L), ITT
[10] = low baseline IgE (<100 kU/L), ITT, week 8, LOCF

With `O=C(c1ccccc1Cl)c1cccnc1-c1nnn(Cc2cc(C(F)(F)F)cc(C(F)(F)F)c2)c1-c1ccncc1` [Tradipitant] as the compound, how does the “Average Itch NRS, Diff” value [1] read?
Its value is −1.6.

What about the “Average Itch VAS, Diff” value [1] of the same compound?
The value was −14.97.

And the “CGIC, Diff” value [1]?
Its value is −0.96.

And the “EASI, Diff” value [1]?
The value was −1.13.

And the “Erythema, Diff” value [1]?
The value was −0.15.

And the “Excoriations, Diff” value [1]?
Its value is −0.56.

What about the “Extension, Diff” value [1] of the same compound?
The value was −0.72.

And the “Insomnia, Diff” value [1]?
The value was −1.12.

What about the “Intensity, Diff” value [1] of the same compound?
Its value is −1.75.

And the “Itch, Diff” value [1]?
Its value is −2.04.

And the “Lichenification, Diff” value [1]?
The value was −0.27.

And the “Log EASI, Diff” value [1]?
The value was −0.46.

And the “Objective SCORAD, Diff” value [1]?
Its value is −6.4.

And the “Oozing/crusting, Diff” value [1]?
Its value is −0.23.

And the “PBI, Diff” value [1]?
The value was 0.67.

What about the “PGIC AD, Diff” value [1] of the same compound?
The value was −0.91.

What about the “PGIC ITCH, Diff” value [1] of the same compound?
Its value is −0.82.

And the “SCORAD Total, Diff” value [1]?
Its value is −9.9.

What about the “Skin dryness, Diff” value [1] of the same compound?
Its value is −0.27.

And the “Sleep Disturbance, Diff” value [1]?
Its value is −1.7.

What about the “Subjective SCORAD, Diff” value [1] of the same compound?
The value was −3.1.

What about the “VRS, Diff” value [1] of the same compound?
The value was −0.5597.

And the “Worst Itch NRS Day, Diff” value [1]?
Its value is −2.06.

What about the “Worst Itch NRS Night, Diff” value [1] of the same compound?
The value was −2.14.

What about the “Worst Itch NRS, Diff” value [1] of the same compound?
Its value is −2.1.

What about the “edema/Papules, Diff” value [1] of the same compound?
Its value is −0.39.

What about the “worst Itch VAS >= 30, Diff” value [1] of the same compound?
Its value is 36.3%.

What about the “worst Itch VAS, Diff” value [1] of the same compound?
Its value is −25.7.

What about the “worst ItchVAS >= 40, Diff” value [1] of the same compound?
Its value is 28.4%.

What about the “EASI 75, Diff” value [2] of the same compound?
The value was 18.3%.

What about the “SCORAD 50, Diff” value [2] of the same compound?
The value was 36.6%.

What about the “Average Itch NRS, Diff” value [3] of the same compound?
The value was 0.4.

And the “Average Itch VAS, Diff” value [3]?
The value was 6.8.

And the “CGIC, Diff” value [3]?
Its value is −0.3.

And the “EASI, Diff” value [3]?
The value was −0.47.

And the “Erythema, Diff” value [3]?
The value was −0.31.

And the “Excoriations, Diff” value [3]?
Its value is −0.24.

And the “Extension, Diff” value [3]?
The value was −0.94.

What about the “Insomnia, Diff” value [3] of the same compound?
The value was 0.29.

What about the “Intensity, Diff” value [3] of the same compound?
Its value is −0.99.

What about the “Itch, Diff” value [3] of the same compound?
Its value is 0.13.

What about the “Lichenification, Diff” value [3] of the same compound?
The value was −0.03.

What about the “Log EASI, Diff” value [3] of the same compound?
Its value is −0.21.

What about the “Objective SCORAD, Diff” value [3] of the same compound?
The value was −3.7.

And the “Oozing/crusting, Diff” value [3]?
The value was −0.18.

What about the “PBI, Diff” value [3] of the same compound?
Its value is 0.5.

And the “PGIC AD, Diff” value [3]?
Its value is −0.6.

And the “PGIC ITCH, Diff” value [3]?
The value was −0.48.

What about the “SCORAD Total, Diff” value [3] of the same compound?
The value was −2.8.

And the “Skin dryness, Diff” value [3]?
The value was −0.40.

And the “Sleep Disturbance, Diff” value [3]?
The value was 0.2.

What about the “Subjective SCORAD, Diff” value [3] of the same compound?
The value was 0.43.

And the “VRS, Diff” value [3]?
Its value is −0.23.

What about the “Worst Itch NRS Day, Diff” value [3] of the same compound?
Its value is 0.43.

And the “Worst Itch NRS Night, Diff” value [3]?
The value was 0.08.

And the “Worst Itch NRS, Diff” value [3]?
The value was 0.3.

What about the “edema/Papules, Diff” value [3] of the same compound?
Its value is 0.08.

And the “worst Itch VAS >= 30, Diff” value [3]?
The value was −3.2%.

What about the “worst Itch VAS, Diff” value [3] of the same compound?
Its value is −0.9.

And the “worst ItchVAS >= 40, Diff” value [3]?
The value was 5.6%.

And the “EASI 75, Diff” value [4]?
Its value is 1.8%.

What about the “SCORAD 50, Diff” value [4] of the same compound?
The value was 7.7%.

What about the CGIC [5] of the same compound?
Its CGIC is 2.6.

What about the PBI [5] of the same compound?
The PBI was 1.7.

What about the “PGIC AD” value [5] of the same compound?
The value was 3.0.

And the “PGIC ITCH” value [5]?
The value was 2.7.

What about the “Average Itch NRS” value [6] of the same compound?
Its value is −3.4.

And the “Average Itch VAS” value [6]?
Its value is −41.9.

And the EASI [6]?
The EASI was −3.78.

What about the “Log EASI” value [6] of the same compound?
The value was −0.8.

And the “Objective SCORAD” value [6]?
Its value is −11.7.

What about the “SCORAD Total” value [6] of the same compound?
The value was −20.3.

What about the “Sleep Disturbance” value [6] of the same compound?
Its value is −3.5.

And the “Subjective SCORAD” value [6]?
The value was −8.7.

And the VRS [6]?
Its VRS is −1.529.

What about the “Worst Itch NRS” value [6] of the same compound?
Its value is −3.6.

And the “Worst Itch NRS Day” value [6]?
The value was −3.7.

And the “Worst Itch NRS Night” value [6]?
Its value is −3.8.

What about the “worst Itch VAS” value [6] of the same compound?
Its value is −43.9.

And the “worst Itch VAS >= 30” value [5]?
The value was 57.9%.

And the “worst ItchVAS >= 40” value [5]?
The value was 50.0%.

And the “EASI 75” value [7]?
The value was 23.7%.

What about the “SCORAD 50 (patients with at least a 50 percent reduction of SCORAD)” value [7] of the same compound?
Its value is 47.4%.

And the “SCORAD 50 (patients with at least a 50 percent reduction of SCORAD)” value (high baseline IgE (≥100 kU/L), ITT, week 8, LOCF, listed as tradipitant)?
Its value is 47%.

And the CGIC [8]?
Its CGIC is 2.7.

What about the PBI [8] of the same compound?
Its PBI is 1.98.

And the “PGIC AD” value [8]?
The value was 2.4.

And the “PGIC ITCH” value [8]?
Its value is 2.3.

And the “Average Itch NRS” value [9]?
Its value is −2.9.

What about the “Average Itch VAS” value [9] of the same compound?
Its value is −39.3.

And the EASI [9]?
Its EASI is −2.7.

And the “Log EASI” value [9]?
Its value is −0.67.

And the “Objective SCORAD” value [9]?
The value was −13.1.

What about the “SCORAD Total” value [9] of the same compound?
The value was −19.9.

What about the “Sleep Disturbance” value [9] of the same compound?
The value was −3.0.

What about the “Subjective SCORAD” value [9] of the same compound?
Its value is −7.2.

And the VRS [9]?
Its VRS is −1.54.

And the “Worst Itch NRS” value [9]?
The value was −2.9.

What about the “Worst Itch NRS Day” value [9] of the same compound?
Its value is −2.9.

And the “Worst Itch NRS Night” value [9]?
The value was −3.0.

And the “worst Itch VAS” value [9]?
The value was −44.

And the “worst Itch VAS >= 30” value [8]?
The value was 55.6%.

What about the “worst ItchVAS >= 40” value [8] of the same compound?
Its value is 55.6%.

What about the “EASI 75” value [10] of the same compound?
The value was 19.4%.

What about the “SCORAD 50” value [10] of the same compound?
The value was 40.0%.

What about the Erythema [5] of the same compound?
Its Erythema is −0.46.

What about the Excoriations [5] of the same compound?
The Excoriations was −0.80.

What about the Extension [5] of the same compound?
Its Extension is −2.4.

What about the Intensity [5] of the same compound?
The Intensity was −3.2.

What about the Lichenification [5] of the same compound?
The Lichenification was −0.42.

And the Oozing/crusting [5]?
The Oozing/crusting was −0.53.

And the Skin dryness [5]?
The Skin dryness was −0.62.

What about the edema/Papules [5] of the same compound?
Its edema/Papules is −0.62.

And the Erythema [8]?
The Erythema was −0.74.

What about the Excoriations [8] of the same compound?
Its Excoriations is −0.74.

And the Extension [8]?
Its Extension is −1.9.

What about the Intensity [8] of the same compound?
Its Intensity is −3.6.

And the Lichenification [8]?
Its Lichenification is −0.49.

What about the Oozing/crusting [8] of the same compound?
Its Oozing/crusting is −0.61.

What about the Skin dryness [8] of the same compound?
Its Skin dryness is −0.73.

And the edema/Papules [8]?
Its edema/Papules is −0.43.

And the “treatment effect in itch and disease severity, high IgE group compared to low IgE group” value (regardless of IgE cutoff (50 to 300 kU/L))?
The value was “consistently stronger treatment effect”.

And the Insomnia [5]?
The Insomnia was −4.0.

And the Itch [5]?
Its Itch is −4.7.

What about the Insomnia [8] of the same compound?
Its Insomnia is −3.2.

What about the Itch [8] of the same compound?
Its Itch is −4.0.
